{"source": "patent US8568755B2", "about": "(priority 2007, dated 2013)", "key": {"Erysiphe graminis": {"system": "Erysiphe graminis", "assay": "Test on preventive effect against wheat powdery mildew (Test Example 1)", "format": "in vivo"}, "Sphaerotheca fuliginea": {"system": "Sphaerotheca fuliginea", "format": "in vivo"}, "[1]": {"details": "partner fungicide alone 0.125 ppm"}, "[2]": {"details": "partner fungicide alone 0.5 ppm"}, "[3]": {"details": "partner fungicide alone 125 ppm"}, "[4]": {"details": "partner fungicide alone 250 ppm"}, "[5]": {"details": "partner fungicide alone 500 ppm"}}, "note": "Where “and” joins values, the source holds several entries; their conditions need not be identical. Identical values can stand only once. Like-named read-outs stand apart in the source and are kept apart here."}
{"compound": "Fc1ccc([C@]2(Cn3cncn3)O[C@H]2c2ccccc2Cl)cc1", "note": "(racemic) [epoxiconazole]", "values": [{"measurement": "diseased area ratio to non-treated section", "setting": "Erysiphe graminis; fungicide (b) alone 0.5 ppm", "result": 21.2}, {"measurement": "diseased area ratio to non-treated section", "setting": "Erysiphe graminis; fungicide (b) alone 1 ppm", "result": 3.0}]}
{"compound": "COc1cc(C)c(C(=O)c2c(Cl)cnc(Cl)c2C(F)(F)F)c(OC)c1OC", "note": "[Compound A, 4-(2,3,4-trimethoxy-6-methylbenzoyl)-2,5-dichloro-3-trifluoromethylpyridine]", "values": [{"measurement": "diseased area ratio to non-treated section", "setting": "Erysiphe graminis; [1]", "result": 65}]}
{"compound": "COc1cc(C)c(C(=O)c2c(OC)cnc(Cl)c2C(F)(F)F)c(OC)c1OC", "note": "[Compound B, 4-(2,3,4-trimethoxy-6-methylbenzoyl)-2-chloro-3-trifluoromethyl-5-methoxypyridine]", "values": [{"measurement": "diseased area ratio to non-treated section", "setting": "Erysiphe graminis; [1]", "result": 50.0}, {"measurement": "diseased area ratio to non-treated section", "setting": "Erysiphe graminis; [2]", "result": 30.0}]}
{"compound": "COc1cc(C)c(C(=O)c2c(OC)ncc(Br)c2Cl)c(OC)c1OC", "note": "[Compound C, 3-(2,3,4-trimethoxy-6-methylbenzoyl)-5-bromo-4-chloro-2-methoxypyridine]", "values": [{"measurement": "diseased area ratio to non-treated section", "setting": "Erysiphe graminis; [1]", "result": 37.5}, {"measurement": "diseased area ratio to non-treated section", "setting": "Erysiphe graminis; [2]", "result": 6.0}]}
{"compound": "COc1cc(C)c(C(=O)c2c(OC)ncc(Cl)c2C)c(OC)c1OC", "note": "[Compound D, 3-(2,3,4-trimethoxy-6-methylbenzoyl)-5-chloro-2-methoxy-4-methylpyridine]", "values": [{"measurement": "diseased area ratio to non-treated section", "setting": "Erysiphe graminis; partner fungicide alone 0.06 ppm", "result": 27.5}, {"measurement": "diseased area ratio to non-treated section", "setting": "Erysiphe graminis; [1]", "result": 15.0}]}
{"compound": "CC(C)Oc1ccc(C(=O)C(C)(C)NC(=O)c2ncccc2C(F)(F)F)cc1", "note": "[Compound No. 7, N-[[4′-(2-propyloxy)-1,1-dimethyl]phenacyl]-3-trifluoromethyl-2-pyridinecarboxamide]", "values": [{"measurement": "diseased area ratio to non-treated section", "setting": "Erysiphe graminis; Compound (a) alone 8 ppm", "result": 30.0}, {"measurement": "diseased area ratio to non-treated section", "setting": "Erysiphe graminis; Compound (a) alone 16 ppm", "result": 25.0}, {"measurement": "diseased area ratio to non-treated section", "setting": "Erysiphe graminis; Compound (a) alone 31 ppm", "result": 4.0}]}
{"compound": "Cc1ccsc1C(=O)NC(C)(C)C(=O)c1ccc(Cl)c(Cl)c1", "note": "[No. 2]", "values": [{"measurement": "diseased area ratio to non-treated section", "setting": "Sphaerotheca fuliginea; Compound No.x alone 2 ppm", "result": 70.0}, {"measurement": "diseased area ratio to non-treated section", "setting": "Sphaerotheca fuliginea; Compound No.x alone 4 ppm", "result": "50.0 and 32.5"}]}
{"compound": "Cc1cc(OC(C)C)ccc1C(=O)C(C)(C)NC(=O)c1ncccc1C(F)(F)F", "note": "[No. 4]", "values": [{"measurement": "diseased area ratio to non-treated section", "setting": "Erysiphe graminis; Compound No.x alone 16 ppm", "result": 17.5}, {"measurement": "diseased area ratio to non-treated section", "setting": "Erysiphe graminis; Compound No.x alone 31 ppm", "result": 17.5}, {"measurement": "diseased area ratio to non-treated section", "setting": "Erysiphe graminis; Compound No.x alone 63 ppm", "result": "15.0 and 7.5"}, {"measurement": "diseased area ratio to non-treated section", "setting": "Erysiphe graminis; Compound No.x alone 125 ppm", "result": 5.0}]}
{"compound": "CC(C)Oc1ccc(C(=O)C(C)(C)NC(=O)c2ncccc2C(F)(F)F)cc1", "note": "[No. 7]", "values": [{"measurement": "diseased area ratio to non-treated section", "setting": "Sphaerotheca fuliginea; Compound No.x alone 1 ppm", "result": 81.3}, {"measurement": "diseased area ratio to non-treated section", "setting": "Sphaerotheca fuliginea; Compound No.x alone 2 ppm", "result": 75.0}, {"measurement": "diseased area ratio to non-treated section", "setting": "Sphaerotheca fuliginea; Compound No.x alone 4 ppm", "result": 56.3}]}
{"compound": "CO/C=C(/C(=O)OC)c1ccccc1Oc1cc(Oc2ccccc2C#N)ncn1", "note": "[azoxystrobin]", "values": [{"measurement": "diseased area ratio to non-treated section", "setting": "Sphaerotheca fuliginea; partner fungicide alone 31 ppm", "result": "37.5 and 55.0"}, {"measurement": "diseased area ratio to non-treated section", "setting": "Sphaerotheca fuliginea; partner fungicide alone 63 ppm", "result": "35.0 and 55.0"}, {"measurement": "diseased area ratio to non-treated section", "setting": "Sphaerotheca fuliginea; [3]", "result": 35.0}]}
{"compound": "N#Cc1c(Cl)c(Cl)c(Cl)c(C#N)c1Cl", "note": "[chlorothalonil]", "values": [{"measurement": "diseased area ratio to non-treated section", "setting": "Sphaerotheca fuliginea; partner fungicide alone 4 ppm", "result": 77.5}, {"measurement": "diseased area ratio to non-treated section", "setting": "Sphaerotheca fuliginea; partner fungicide alone 16 ppm", "result": 37.5}]}
{"compound": "CC(=O)c1c(C)c(C)nc2c(F)cc(C(C)(C)C)cc12", "note": "[compound β, 2,3-dimethyl-6-t-butyl-8-fluoro-4-acetylquinoline]", "values": [{"measurement": "diseased area ratio to non-treated section", "setting": "Erysiphe graminis; fungicide (b) alone 10 ppm", "result": 95.0}]}
{"compound": "[Cl-].[Cu+2].[Cu+2].[OH-].[OH-].[OH-]", "note": "[copper oxychloride]", "values": [{"measurement": "diseased area ratio to non-treated section", "setting": "Sphaerotheca fuliginea; [4]", "result": 25.0}, {"measurement": "diseased area ratio to non-treated section", "setting": "Sphaerotheca fuliginea; [5]", "result": 21.9}, {"measurement": "diseased area ratio to non-treated section", "setting": "Sphaerotheca fuliginea; partner fungicide alone 1000 ppm", "result": "20.7 and 20.6"}]}
{"compound": "Cc1ccc(-c2c(Cl)nc(C#N)n2S(=O)(=O)N(C)C)cc1", "note": "[cyazofamid, reference compound]", "values": [{"measurement": "diseased area ratio to non-treated section", "setting": "Sphaerotheca fuliginea; fungicide (b) alone 63 ppm", "result": 80.0}, {"measurement": "diseased area ratio to non-treated section", "setting": "Sphaerotheca fuliginea; fungicide (b) alone 125 ppm", "result": 57.5}, {"measurement": "diseased area ratio to non-treated section", "setting": "Sphaerotheca fuliginea; partner fungicide alone 63 ppm", "result": 70.0}, {"measurement": "diseased area ratio to non-treated section", "setting": "Sphaerotheca fuliginea; [3]", "result": 57.5}]}
{"compound": "CC(C1CC1)C(O)(Cn1cncn1)c1ccc(Cl)cc1", "note": "(stereo not drawn) [cyproconazole]", "values": [{"measurement": "diseased area ratio to non-treated section", "setting": "Erysiphe graminis; fungicide (b) alone 0.125 ppm", "result": 97.5}, {"measurement": "diseased area ratio to non-treated section", "setting": "Erysiphe graminis; fungicide (b) alone 0.5 ppm", "result": 60.0}]}
{"compound": "Cc1cc(C2CC2)nc(Nc2ccccc2)n1", "note": "[cyprodinil]", "values": [{"measurement": "diseased area ratio to non-treated section", "setting": "Erysiphe graminis; fungicide (b) alone 31 ppm", "result": 75.0}, {"measurement": "diseased area ratio to non-treated section", "setting": "Erysiphe graminis; fungicide (b) alone 63 ppm", "result": 70.0}, {"measurement": "diseased area ratio to non-treated section", "setting": "Erysiphe graminis; fungicide (b) alone 125 ppm", "result": 32.5}]}
{"compound": "CC1COC(Cn2cncn2)(c2ccc(Oc3ccc(Cl)cc3)cc2Cl)O1", "note": "(stereo not drawn) [difenoconazole]", "values": [{"measurement": "diseased area ratio to non-treated section", "setting": "Sphaerotheca fuliginea; partner fungicide alone 8 ppm", "result": 31.3}, {"measurement": "diseased area ratio to non-treated section", "setting": "Sphaerotheca fuliginea; partner fungicide alone 16 ppm", "result": 9.4}, {"measurement": "diseased area ratio to non-treated section", "setting": "Sphaerotheca fuliginea; partner fungicide alone 31 ppm", "result": 8.1}]}
{"compound": "COc1ccc(C(=CC(=O)N2CCOCC2)c2ccc(Cl)cc2)cc1OC", "note": "[dimethomorph]", "values": [{"measurement": "diseased area ratio to non-treated section (experimental value)", "setting": "Sphaerotheca fuliginea; single use at 500 ppm", "result": 95.0}]}
{"compound": "CNC(=O)/C(=N/OC)c1ccccc1COc1cc(C)ccc1C", "note": "[dimoxystrobin]", "values": [{"measurement": "diseased area ratio to non-treated section", "setting": "Erysiphe graminis; fungicide (b) alone 5 ppm", "result": 5.0}]}
{"compound": "CC1(C(=O)Nc2ccc(O)c(Cl)c2Cl)CCCCC1", "note": "[fenhexamid]", "values": [{"measurement": "diseased area ratio to non-treated section", "setting": "Sphaerotheca fuliginea; [3]", "result": 52.5}, {"measurement": "diseased area ratio to non-treated section", "setting": "Sphaerotheca fuliginea; [4]", "result": 52.5}, {"measurement": "diseased area ratio to non-treated section", "setting": "Sphaerotheca fuliginea; [5]", "result": 50.0}]}
{"compound": "CC(Cc1ccc(C(C)(C)C)cc1)CN1CCCCC1", "note": "(stereo not drawn) [fenpropidin]", "values": [{"measurement": "diseased area ratio to non-treated section", "setting": "Erysiphe graminis; fungicide (b) alone 12.5 ppm", "result": 27.5}, {"measurement": "diseased area ratio to non-treated section", "setting": "Erysiphe graminis; fungicide (b) alone 25 ppm", "result": 2.0}, {"measurement": "diseased area ratio to non-treated section", "setting": "Erysiphe graminis; fungicide (b) alone 50 ppm", "result": 1.0}]}
{"compound": "CC(Cc1ccc(C(C)(C)C)cc1)CN1C[C@@H](C)O[C@@H](C)C1", "note": "(stereo partly drawn) [fenpropimorph]", "values": [{"measurement": "diseased area ratio to non-treated section", "setting": "Erysiphe graminis; fungicide (b) alone 12.5 ppm", "result": 36.4}, {"measurement": "diseased area ratio to non-treated section", "setting": "Erysiphe graminis; fungicide (b) alone 25 ppm", "result": 9.1}]}
{"compound": "N#Cc1c[nH]cc1-c1cccc2c1OC(F)(F)O2", "note": "[fludioxonil]", "values": [{"measurement": "diseased area ratio to non-treated section", "setting": "Erysiphe graminis; fungicide (b) alone 125 ppm", "result": 95.0}, {"measurement": "diseased area ratio to non-treated section", "setting": "Erysiphe graminis; fungicide (b) alone 250 ppm", "result": 90.0}, {"measurement": "diseased area ratio to non-treated section", "setting": "Erysiphe graminis; fungicide (b) alone 500 ppm", "result": 85.0}]}
{"compound": "CC(C)Oc1cccc(NC(=O)c2ccccc2C(F)(F)F)c1", "note": "[flutolanil]", "values": [{"measurement": "diseased area ratio to non-treated section", "setting": "Erysiphe graminis; fungicide (b) alone 500 ppm", "result": 7.5}, {"measurement": "diseased area ratio to non-treated section", "setting": "Erysiphe graminis; fungicide (b) alone 1000 ppm", "result": 12.5}]}
